Source: article PMC5938026 (Experimental & Molecular Medicine, 2018)

These molecules were tested against Kv1.5 (Rattus norvegicus, UniProt P19024) (assay: whole-cell patch clamp of CHO cells overexpressing Kv1.[…]).
Assay type: cell-based

Kv1.5, sequence (P19024 whole entry): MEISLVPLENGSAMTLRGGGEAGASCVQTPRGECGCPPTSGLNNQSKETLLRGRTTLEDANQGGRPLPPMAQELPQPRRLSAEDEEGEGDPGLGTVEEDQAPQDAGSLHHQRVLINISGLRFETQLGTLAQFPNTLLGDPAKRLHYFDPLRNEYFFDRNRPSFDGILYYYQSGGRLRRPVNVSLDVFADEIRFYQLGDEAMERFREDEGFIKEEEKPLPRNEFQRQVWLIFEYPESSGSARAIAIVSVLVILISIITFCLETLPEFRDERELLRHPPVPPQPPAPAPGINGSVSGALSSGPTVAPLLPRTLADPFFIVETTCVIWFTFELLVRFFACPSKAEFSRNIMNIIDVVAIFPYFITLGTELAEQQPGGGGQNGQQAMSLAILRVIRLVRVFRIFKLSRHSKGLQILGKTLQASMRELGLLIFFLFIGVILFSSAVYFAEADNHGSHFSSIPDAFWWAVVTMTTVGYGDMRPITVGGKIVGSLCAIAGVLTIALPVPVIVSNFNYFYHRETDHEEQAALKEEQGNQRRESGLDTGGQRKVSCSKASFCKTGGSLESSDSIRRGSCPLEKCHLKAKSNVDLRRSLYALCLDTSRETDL

**Q.** For `CNC1(c2ccccc2Cl)CCCCC1=O` (racemic) [ketamine], which IC50 is on record?
**A.** Its IC50 is 641 ± 33.2 µM.

**Q.** Which IC50 does the source give for `C[C@]12N[C@H](Cc3ccccc31)c1ccccc12` [(+) MK801] here?
**A.** The IC50 was 157 ± 14 µM.

**Q.** Which IC50 does the source give for `C[C@@]12N[C@@H](Cc3ccccc31)c1ccccc12` [(−) MK801] here?
**A.** Its IC50 is 157 ± 7.9 µM.
